Measured values taken from ChEMBL document CHEMBL1124550, “Replacement of the 3'-CH group by nitrogen in the carbocyclic analogue of thymidine” (J Med Chem, 1989).

Columns and labels:
[1] = system: Human immunodeficiency virus 1; assay: Antiviral activity against Human immunodeficiency virus 1 (HIV-1) up to 100 uM concentration; inactive; type: functional, organism-based
MCF7 = assay: Antitumor activity against breast carcinoma cell line (MCF-7M); type: functional, cell-based; details: Homo sapiens
HT-29 = assay: Antitumor activity against colon carcinoma cell line (HT-29); type: functional, cell-based; details: Homo sapiens
SK-MES-1 = assay: Antitumor activity against lung carcinoma cell line (SK-MES-1); type: functional, cell-based; details: Homo sapiens
Human alphaherpesvirus 1 = assay: Antiviral activity against Herpes simplex virus type 1 (HSV-1) up to 100 uM concentration; inactive; type: functional, organism-based

Row | SMILES | IC50 [1] | IC50 (MCF7) | IC50 (HT-29) | IC50 (SK-MES-1) | IC50 (Human alphaherpesvirus 1)
1 | Cc1cn([C@@H]2C[C@H](CO)N(O)C2)c(=O)[nH]c1=O | Not Active | 80 nM | 14000 nM | 6910 nM | Not Active
2 | Cc1cn([C@@H]2C[C@H](CO)N(N=O)C2)c(=O)[nH]c1=O | Not Active |  |  |  | Not Active
3 | Cc1cn(C2CNC(CO)C2)c(=O)[nH]c1=O (centres undefined) | Not Active |  |  |  | Not Active
4 | COC(=O)N1CC(n2cc(C)c(=O)[nH]c2=O)C[C@H]1CO (some centres undefined) | Not Active |  |  |  | Not Active
5 | Cc1cn(C2C[C@@H](CO)N(C=O)C2)c(=O)[nH]c1=O (some centres undefined) | Not Active |  |  |  | Not Active
6 | Cc1cn(C2C[C@@H](CO)N(CCC#N)C2)c(=O)[nH]c1=O (some centres undefined) | Not Active |  |  |  | Not Active
7 | Cc1cn(C2C[C@@H](CO)N(C#N)C2)c(=O)[nH]c1=O (some centres undefined) | Not Active |  |  |  | Not Active
8 | O=c1[nH]cc(F)c(=O)[nH]1 [FLUOROURACIL] |  |  | 150 nM | 310 nM | 
